Measured values: US12467085B2, “High accuracy nanopore-based single molecule sequencing by synthesis with tagged nucleotides” (priority 2019, dated 2025)
Read-outs that look alike come from different tables or passages of the source.

Target: Phi29-type DNA polymerase (Bacillus phage phi29, UniProt P03680)
Assay: Dissociation constants of nucleotides with polymerase by fluorescence assays
Assay type: binding
Conditions: for Kd: fluorescence assays, natural and unincorporable nucleotides
Source text: Disclosed herein is a determination of a number of enzymatic parameters including substrate binding and dissociation constants (examples in Table 1) under a variety of conditions and with a variety of nucleotide analogs (NTPs, N6Ps, tagged N6Ps, α-thio and α,β-methylene nucleotide polyphosphates). In addition to these compounds, disclosed herein are fluorescent nucleotide analogs and unincorporable (α-thio) nucleotides that were designed and synthesized for the polymerase tests to develop new Nanopore-SBS approaches as described below.

Phi29-type DNA polymerase, sequence (P03680 whole entry): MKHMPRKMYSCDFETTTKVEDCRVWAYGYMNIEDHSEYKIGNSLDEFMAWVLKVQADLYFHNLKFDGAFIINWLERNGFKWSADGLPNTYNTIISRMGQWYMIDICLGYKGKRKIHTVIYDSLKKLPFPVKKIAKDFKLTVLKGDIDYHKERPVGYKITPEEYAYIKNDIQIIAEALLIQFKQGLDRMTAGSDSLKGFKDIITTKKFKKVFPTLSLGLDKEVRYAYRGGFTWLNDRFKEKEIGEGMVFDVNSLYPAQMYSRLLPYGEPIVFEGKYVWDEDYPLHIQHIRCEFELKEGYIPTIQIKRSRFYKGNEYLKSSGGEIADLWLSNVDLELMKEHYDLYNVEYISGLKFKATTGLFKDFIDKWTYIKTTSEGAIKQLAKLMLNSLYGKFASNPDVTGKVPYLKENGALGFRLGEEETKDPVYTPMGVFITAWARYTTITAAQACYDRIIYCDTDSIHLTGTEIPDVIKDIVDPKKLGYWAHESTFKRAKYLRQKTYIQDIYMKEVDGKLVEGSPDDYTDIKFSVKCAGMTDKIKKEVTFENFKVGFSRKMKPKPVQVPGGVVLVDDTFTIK

Compound	Kd [nM]	binding to the polymerase in the ternary complex (in words, compared with the other nucleotides)	Kd (read-out: KD) [nM]
Nc1ccn(C2CC(O)C(COP(O)(=S)OP(=O)(O)OP(=O)(O)O)O2)c(=O)n1 (stereo not drawn) [2′-dCTP-αS (Rp-isomer), 2′-dCTP-αS]	750	–	–
Nc1ccn(C2CC(O)C(COP(O)(=S)OP(=O)(O)OP(=O)(O)O)O2)c(=O)n1 (stereo not drawn) [2′-dCTP-αS (Sp-isomer), 2′-dCTP-αS]	1	–	–
Nc1nc2c(ncn2C2CC(O)C(COP(O)(=S)OP(=O)(O)OP(=O)(O)O)O2)c(=O)[nH]1 (stereo not drawn) [2′-dGTP-αS (Rp-isomer), 2′-dGTP-αS]	910	–	–
Nc1nc2c(ncn2C2CC(O)C(COP(O)(=S)OP(=O)(O)OP(=O)(O)O)O2)c(=O)[nH]1 (stereo not drawn) [2′-dGTP-αS (Sp-isomer), 2′-dGTP-αS]	6	–	–
Nc1ccn(C2CC(O)C(COP(=O)(O)OP(=O)(O)OP(=O)(O)O)O2)c(=O)n1 (stereo not drawn) [dCTP, reference compound]	~5	–	–
Nc1ccn(C2CC(O)C(COP(=O)(O)CP(=O)(O)OP(=O)(O)O)O2)c(=O)n1 (stereo not drawn) [dCp-CH2-pp, reference compound]	25000	do not bind as tightly	–
Nc1nc2c(ncn2C2CC(O)C(COP(=O)(O)OP(=O)(O)OP(=O)(O)O)O2)c(=O)[nH]1 (stereo not drawn) [dGTP, reference compound]	6	–	–
αS-dG6P-N3 [αS-dG6P-N3 (Rp-isomer)]	–	–	670
